The numbers were not newly measured in patent US11433083B2, “High-strength testosterone undecanoate compositions” (priority 2010, dated 2022), which cites them from elsewhere.

Bounds are passed on as bounds.

As for `CCCCCCCCCCC(=O)O[C@H]1CC[C@H]2[C@@H]3CCC4=CC(=O)CC[C@]4(C)[C@H]3CC[C@]12C` [Testosterone undecanoate, testosterone undecanoate], the water solubility is less than 0.3 ng/mL.
